Experimental data: patent US12274702B2, “Nasal compositions comprising alcaftadine” (ALKEM LABORATORIES LIMITED, priority 2021, dated 2025)

Columns and labels:
[1] = Nasal irritation and histopathology of nasal epithelium after intranasal administration in rabbits; format: in vivo, New Zealand white rabbits; settings: doses 0.312 mg, 0.625 mg and 1.25 mg, all three groups
Protocol: (§1) The study was carried out on total 24 male New Zealand white rabbits, which were segregated into four groups (G1 to G4, 6 rabbits/group). Mild anaesthesia was induced in all rabbits by inhalation of 2% isoflurane. Three groups (G1-G3) of anaesthetized rabbits were intranasally administered 250 μL of alcaftadine once daily using the formulations of Examples 1A, 1B, and 1C. A comparator, 250 μL of olopatadine at a concentration of 0.6% w/v, was intranasally administered once-daily to a fourth group G4 of anaesthetized rabbits.
(§2) Procedure for sample preparation: Collected blood samples were mixed gently and kept on crushed ice. Plasma samples were separated after centrifugation at 3500 rpm for 10 min at 4° C. Plasma separation was carried out within 30 min of sample collection and stored at −70±10° C. The animals were euthanized by intravenous administration of sodium thiopental injection overdose and nasal epithelium was collected. Half of the tissues of nasal epithelium were homogenized using phosphate buffered solution (20% homogenation) for quantification of alcaftadine and olopatidine. The remaining half of the tissues were stored in 10% neutral buffered formalin for detailed gross histopathological examination such as necrosis, inflammation or any changes during necropsy.

[2] = Pharmacokinetics after intranasal administration in rabbits; format: in vivo, New Zealand white rabbits
Protocol: The pharmacokinetic profiles for Example 1A, 1B and 1C as well as an olapatdine nasal formulation were each determined on 6 male New Zealand white rabbits. The olopatadine nasal formulation (0.6% w/v) was prepared from Olopat Max® 0.7% w/v, where Olopat Max® was diluted to 0.6% w/v by using purified water.
as §1
Sampling details for the test and reference formulations: Approximately 0.5 mL of blood sample from each rabbit was withdrawn via marginal car vein into pre-labelled Eppendorf tubes containing 10% EDTA as an anticoagulant. Blood samples were withdrawn at 0 min, 5 min, 10 min, 15 min, 30 min, 60 min, 120 min, 240 min, 480 min and 1440 min after administration of test and reference formulations.
as §2
Rabbit plasma and nasal epithelial tissue concentrations of alcaftadine or olopatidine were determined using a fit-for-purpose LC-MS/MS method with LLOQ of 0.500 ng/ml or 0.250 ng/mL, respectively. The pharmacokinetic parameters were evaluated using Phoenix WinNonlin® Ent-Version 8.0 by non-compartmental analysis.

[3] = single intranasal administration, doses 0.625 to 1.25 mg, rabbits

In the case of `CN1CCC(=C2c3ccccc3CCn3c(C=O)cnc32)CC1` [Alcaftadine, 6,11-dihydro-11-(1-methyl-4-piperidinylidene)-5H-imidazo[2,1-b][3]benzazepine-3-carboxaldehyde], the “signs or symptoms of inflammation or irritation” value [1] is reported as “no signs or symptoms of inflammation or irritation were observed”, the “plasma concentration / systemic exposure” value ([2]; intranasal, rabbits) is reported as “dose proportional with overall low systemic exposure” and the “onset of action versus intranasal olopatadine (from Tmax)” value ([2]; intranasal, rabbits, olopatadine 1.5 mg) is reported as “faster onset of action than intranasal olopatadine”. The “area under the curve (AUC0-24h)” value [2, 3] was “dose proportional”, the “peak plasma concentrations (Cmax)” value [2, 3] was “dose proportional” and the “time to achieve maximum concentration (Tmax)” value ([2]; single intranasal instillation, dose 0.625 mg (250 μL of Example 1B), rabbit plasma) was 4.8 min.
With `CN(C)CC/C=C1/c2ccccc2COc2ccc(CC(=O)O)cc21` [olopatadine] the Tmax ([2]; male, New Zealand white, inhaled or intranasal, single intranasal administration of 1.5 mg (250 μL, 0.6% w/v), rabbit plasma, read-out: time to reach peak concentration (Tmax)) was 22.8 min.
